US9993494B2, “Compositions and methods for treating fibrotic disease” (eFFECTOR Therapeutics, Inc., priority 2014, dated 2018)

Test system: normal human lung fibroblasts
Assay: Ribosomal profiling: translational efficiency in TGFβ-treated fibroblasts
Format: cell-based
Conditions: TGFβ-treated fibroblasts
Outline: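 Genome-wide RPF and total RNA libraries (ARTseq, RNA-Seq) were made from lysates of cycloheximide-treated, PBS-washed cells. After trimming and human-genome mapping, per-gene coding-region counts were compared between RPF and RNA for translational efficiency. Genes scoring low in either fraction were dropped.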

CC(C=CC(=O)NO)=CC(C)C(=O)c1ccc(N(C)C)cc1 (stereo not drawn) [TSA, 7-[4-(dimethylamino)phenyl]-N-hydroxy-4,6-dimethyl-7-oxohepta-2,4-dienamide]
13 genes: number of genes whose translational efficiency was uniquely modulated by the compound (duplicate ribosomal profiles)
− (− = <0.9): renormalizing the translational profile of RPL9 (ENSG00000163682) | renormalizing the translational profile of RHOBTB3 (ENSG00000164292) | renormalizing the translational profile of RPL36AL (ENSG00000165502) | renormalizing the translational profile of RPL27A (ENSG00000166441) | renormalizing the translational profile of RP11-382A20.3.1 (ENSG00000166503) | renormalizing the translational profile of ANKDD1A (ENSG00000166839) | renormalizing the translational profile of RPL13 (ENSG00000167526) | renormalizing the translational profile of KIAA1024 (ENSG00000169330) | renormalizing the translational profile of HTRA3 (ENSG00000170801) | renormalizing the translational profile of CTPS (ENSG00000171793) | renormalizing the translational profile of QARS (ENSG00000172053) | renormalizing the translational profile of RPL38 (ENSG00000172809) | renormalizing the translational profile of MRPL45 (ENSG00000174100) | renormalizing the translational profile of RPL4 (ENSG00000174444) | renormalizing the translational profile of RPL15 (ENSG00000174748) | renormalizing the translational profile of DES (ENSG00000175084) | renormalizing the translational profile of EIF3F (ENSG00000175390) | renormalizing the translational profile of C14orf49 (ENSG00000176438) | renormalizing the translational profile of RPLP2 (ENSG00000177600) | renormalizing the translational profile of IMPDH2 (ENSG00000178035) | renormalizing the translational profile of DNAJC22 (ENSG00000178401) | renormalizing the translational profile of RPL35A (ENSG00000182899) | renormalizing the translational profile of LENG9 (ENSG00000182909) | renormalizing the translational profile of C22orf32 (ENSG00000183172) | renormalizing the translational profile of NPW (ENSG00000183971) | renormalizing the translational profile of ROBO2 (ENSG00000185008) | renormalizing the translational profile of PTCH1 (ENSG00000185920) | renormalizing the translational profile of POLR1D (ENSG00000186184) | renormalizing the translational profile of DYNC2H1 (ENSG00000187240) | renormalizing the translational profile of LRRK2 (ENSG00000188906) | renormalizing the translational profile of NACA (ENSG00000196531) | renormalizing the translational profile of LAMB3 (ENSG00000196878) | renormalizing the translational profile of RPL37A (ENSG00000197756) | renormalizing the translational profile of RPL12 (ENSG00000197958) | renormalizing the translational profile of LPAR1 (ENSG00000198121) | renormalizing the translational profile of RPL23A (ENSG00000198242) | renormalizing the translational profile of PLN (ENSG00000198523) | renormalizing the translational profile of RPL10A (ENSG00000198755) | renormalizing the translational profile of CES1 (ENSG00000198848) | renormalizing the translational profile of RPL39 (ENSG00000198918) | renormalizing the translational profile of CARD16 (ENSG00000204397) | renormalizing the translational profile of MICA (ENSG00000204520) | renormalizing the translational profile of GNB2L1 (ENSG00000204628) | renormalizing the translational profile of RPL17 (ENSG00000215472) | renormalizing the translational profile of RPL41 (ENSG00000229117) | renormalizing the translational profile of CHCHD10 (ENSG00000250479) | renormalizing the translational profile of EEF1G (ENSG00000254772) | effect in renormalizing the translational profile of the gene (gene RPS2 (ENSG00000140988)) | effect in renormalizing the translational profile of the gene (gene RPS3 (ENSG00000149273)) | effect in renormalizing the translational profile of the gene (gene RPS3A (ENSG00000145425)) | effect in renormalizing the translational profile of the gene (gene RPS4X (ENSG00000198034)) | effect in renormalizing the translational profile of the gene (gene RPS4Y1 (ENSG00000129824)) | effect in renormalizing the translational profile of the gene (gene RPS5 (ENSG00000083845))
+ (+ = 0.9 to 1.5): renormalizing the translational profile of EEF2 (ENSG00000167658) | renormalizing the translational profile of CA5B (ENSG00000169239) | renormalizing the translational profile of MURC (ENSG00000170681) | renormalizing the translational profile of CLCF1 (ENSG00000175505) | renormalizing the translational profile of AMIGO3 (ENSG00000176020) | renormalizing the translational profile of PDE4B (ENSG00000184588) | renormalizing the translational profile of RPL14 (ENSG00000188846) | renormalizing the translational profile of PCBP2 (ENSG00000197111) | renormalizing the translational profile of MAP3K5 (ENSG00000197442) | renormalizing the translational profile of ARPC1A (ENSG00000241685)
++ (++ = 1.5 to 2.0): renormalizing the translational profile of PDE7B (ENSG00000171408) | renormalizing the translational profile of LPAR3 (ENSG00000171517)
